Results published in the supplement of paper PMC10307832.

Legend:
Test in all cases: relative viability (nuclei count vs DMSO), 5 days (fraction); higher = more cells survive
[1] = compound: CC1=CC(=NN1)NC2=CC(=NC(=N2)/C=C/C3=CC=CC=C3)N4CCN(CC4)C + CC1(C)CCC(c2ccc(Cl)cc2)=C(CN2CCN(c3ccc(C(=O)NS(=O)(=O)c4ccc(N[C@H](CCN5CCOCC5)CSc5ccccc5)c(S(=O)(=O)C(F)(F)F)c4)cc3)CC2)C1 [Navitoclax] (partner 0.5 µM)
Procedure, shortened: (§1)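 Cells from lung cancer lines were seeded into 1536-well plates and, one day later, dosed by pin tool. Treatments were either a single drug or a fixed dose of an anchor drug with five library-drug doses (not always all listed) in √10 steps. After 5 days, nuclei were stained in a one-step fixation (final 0.05% Triton X-100, 1% formaldehyde, 1 ug/ml Hoechst) and counted on 4× images, and relative viability is the treated-to-vehicle nuclei ratio, as the median of duplicate plates.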

[2] = compound: CC1=CC(=NN1)NC2=CC(=NC(=N2)/C=C/C3=CC=CC=C3)N4CCN(CC4)C + COc1cc2c(Oc3ccc(NC(=O)C4(C(=O)Nc5ccc(F)cc5)CC4)cc3F)ccnc2cc1OCCCN1CCOCC1 [Foretinib] (partner 0.25 µM)
Procedure, shortened: as §1

[3] = compound: CC1=CC(=NN1)NC2=CC(=NC(=N2)/C=C/C3=CC=CC=C3)N4CCN(CC4)C + Nc1nc2[nH]cc(CCc3ccc(C(=O)N[C@@H](CCC(=O)O)C(=O)O)cc3)c2c(=O)[nH]1 [Pemetrexed] (partner 0.2 µM)
Procedure, shortened: as §1

[4] = compound: CC1=CC(=NN1)NC2=CC(=NC(=N2)/C=C/C3=CC=CC=C3)N4CCN(CC4)C + O=C(CCCCCCC(=O)Nc1ccccc1)NO [Vorinostat] (partner 1 µM)
Procedure, shortened: as §1

Cell Line | relative viability ([1]; first compound 0.08 µM) | relative viability ([1]; first compound 0.253 µM) | relative viability ([1]; first compound 0.8 µM) | relative viability ([1]; first compound 2.53 µM) | relative viability ([1]; first compound 8 µM) | relative viability ([2]; first compound 0.08 µM) | relative viability ([2]; first compound 0.253 µM) | relative viability ([2]; first compound 0.8 µM) | relative viability ([2]; first compound 2.53 µM) | relative viability ([2]; first compound 8 µM) | relative viability ([3]; first compound 0.08 µM) | relative viability ([3]; first compound 0.253 µM) | relative viability ([3]; first compound 0.8 µM) | relative viability ([3]; first compound 2.53 µM) | relative viability ([3]; first compound 8 µM) | relative viability ([4]; first compound 0.08 µM) | relative viability ([4]; first compound 0.253 µM) | relative viability ([4]; first compound 0.8 µM) | relative viability ([4]; first compound 2.53 µM) | relative viability ([4]; first compound 8 µM)
NCI-H460 | 1.07 | 1.58 | 0.952 | 0.0095 | 0.0091 | 1 | 1.1 | 1.04 | 0.477 | 0.0228 | 0.0607 | 0.0584 | 0.0607 | 0.0513 | 0.0228 | 0.673 | 0.755 | 0.382 | 0.0404 | 0.0188
NCI-H596 | 0.91 | 1.04 | 0.705 | 0.489 | 0.27 | 0.78 | 0.937 | 0.633 | 0.654 | 0.165 | 0.468 | 0.5 | 0.456 | 0.408 | 0.228 | 0.557 | 0.633 | 0.577 | 0.42 | 0.139
HARA | 1.17 | 1.16 | 1.13 | 0.982 | 0.238 | 0.932 | 0.909 | 0.794 | 0.098 | 0.0593 | 0.234 | 0.252 | 0.252 | 0.165 | 0.175 | 0.545 | 0.689 | 0.459 | 0.26 | 0.0694
NCI-H1793 | 0.516 | 0.446 | 0.466 | 0.156 | 0.131 | 0.349 | 0.663 | 0.329 | 0.121 | 0.112 | 0.698 | 1.03 | 0.644 | 0.137 | 0.0795 | 0.544 | 0.77 | 0.78 | 0.124 | 0.0909
NCI-H2126 | 0.839 | 0.871 | 0.806 | 0.772 | 0.478 | 1.06 | 1.09 | 1.19 | 1.03 | 0.587 | 0.696 | 0.649 | 0.633 | 0.569 | 0.426 | 0.816 | 0.82 | 0.834 | 0.674 | 0.202
HCC-827 | 0.972 | 1.04 | 0.979 | 0.937 | 0.705 | 1.08 | 1.02 | 0.993 | 0.581 | 0.239 | 0.159 | 0.241 | 0.262 | 0.266 | 0.171 | 0.282 | 0.908 | 0.823 | 0.773 | 0.215
BEN | 0.0566 | 0.0746 | 0.188 | 0.0803 | 0.0617 | 0.639 | 0.675 | 0.715 | 0.377 | 0.182 | 0.723 | 0.809 | 0.699 | 0.476 | 0.323 | 0.544 | 0.53 | 0.563 | 0.47 | 0.334
ChaGo-K-1 | 0.893 | 1.12 | 1.24 | 0.298 | 0.272 | 0.952 | 0.915 | 0.79 | 0.353 | 0.186 | 0.259 | 0.264 | 0.27 | 0.227 | 0.17 | 0.799 | 0.8 | 0.613 | 0.343 | 0.186
